Earlier results in patent US12037623B2, “Enzymatic synthesis of 4′-ethynyl nucleoside analogs” (priority 2018, dated 2024).

Experiments:
[1] = system: SIV; settings: PBMC from rhesus macaque, 24 hr after drug administration
[2] = system: HIV
[3] = system: HIV infection; settings: humanized mouse models and SIV infected rhesus macaque model
[4] = oral; mouse and rhesus monkey
[5] = pbmc

Row | Structure (SMILES) | susceptibility of isolated PBMC to SIV infection [1] | antiviral activity against clinical isolates ([2]; clinical isolates across all subtypes that have been evaluated) | antiretroviral activity ([2]; in-vitro HIV replication assays) | efficacy in animal models of HIV infection [3] | absorption [4] | plasma concentrations [4] | intracellular half-life [5]
1 | C#C[C@]1(CO)O[C@@H](n2cnc3c(N)nc(F)nc32)C[C@@H]1O [EFdA, 4′-ethynyl-2-fluoro-2′-deoxyadenosine] | refractory to SIV infection | comparable antiviral activity | potent antiretroviral | efficacy | rapid absorption | high plasma concentrations | –
2 | C#C[C@]1(COP(=O)(O)OP(=O)(O)OP(=O)(O)O)O[C@@H](n2cnc3c(N)nc(F)nc32)C[C@@H]1O [EFdA-TP, EFdA Triphosphate] | – | – | – | – | – | – | exceeds 72 hrs
